Experimental data taken from patent US8455533B2, “Aminotetrahydropyrans as dipeptidyl peptidase-IV inhibitors for the treatment or prevention of diabetes” (Merck Sharp & Dohme Corp., priority 2009, dated 2013).
Structures can show the parent of a compound that is named as a salt.

system: cardiac allograft survival; test: not given; details: rats; survival from day 7 to day 14; Transplantation 63:1495-1500 (1997); cited from earlier work

Compound | cardiac allograft survival
CC(C)N1CCC(c2ccccc2)(c2ccccc2)CC1 [Prodipine, Pro-Pro-diphenyl-phosphonate] | double cardiac allograft survival

system: hematopoiesis; test: not given; details: mouse, cyclophosphamide-induced neutropenia; WO 99/56753; cited from earlier work

Compound | hematopoiesis
CC(C)[C@H](N)C(=O)N1CCC[C@H]1B(O)O [Val-Boro-Pro] | stimulated hematopoiesis

target: T1, dipeptidyl peptidase-IV enzyme (DPP-4) (Homo sapiens, UniProt P27487); test: DPP-4 inhibition, continuous fluorometric assay with substrate Gly-Pro-AMC; type: biochemical; details: soluble human DPP-4, 50 μM Gly-Pro-AMC, pH 7.5, room temperature
T1 construct: The enzyme used in these studies was soluble (transmembrane domain and cytoplasmic extension excluded) human protein; made in house; host or cells: baculovirus expression system (Bac-To-Bac, Gibco BRL)
T1 sequence (P27487 29-766 limits assumed): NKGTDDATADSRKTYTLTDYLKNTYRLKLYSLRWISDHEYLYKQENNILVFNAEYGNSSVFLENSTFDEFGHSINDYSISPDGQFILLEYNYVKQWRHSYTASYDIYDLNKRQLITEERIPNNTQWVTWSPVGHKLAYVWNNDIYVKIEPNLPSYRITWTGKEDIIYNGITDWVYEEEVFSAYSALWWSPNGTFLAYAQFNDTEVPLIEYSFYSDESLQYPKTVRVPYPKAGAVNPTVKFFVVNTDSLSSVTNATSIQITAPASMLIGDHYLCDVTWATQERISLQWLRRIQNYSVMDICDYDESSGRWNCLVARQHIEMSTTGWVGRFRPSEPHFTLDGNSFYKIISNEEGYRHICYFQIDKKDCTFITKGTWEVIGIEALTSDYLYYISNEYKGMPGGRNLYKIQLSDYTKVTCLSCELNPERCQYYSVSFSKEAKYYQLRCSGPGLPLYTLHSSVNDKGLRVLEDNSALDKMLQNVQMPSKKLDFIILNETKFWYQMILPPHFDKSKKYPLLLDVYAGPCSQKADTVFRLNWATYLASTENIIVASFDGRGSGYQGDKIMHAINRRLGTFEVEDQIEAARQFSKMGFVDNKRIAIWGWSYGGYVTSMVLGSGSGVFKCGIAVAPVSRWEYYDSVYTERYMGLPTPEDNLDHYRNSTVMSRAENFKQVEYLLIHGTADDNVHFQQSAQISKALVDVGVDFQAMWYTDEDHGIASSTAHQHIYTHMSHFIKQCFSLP
Experimental: Inhibition constants are determined as follows. A continuous fluorometric assay is employed with the substrate Gly-Pro-AMC, which is cleaved by DPP-4 to release the fluorescent AMC leaving group. […] A typical reaction contains approximately 50 pM enzyme, 50 μM Gly-Pro-AMC, and buffer (100 mM HEPES, pH 7.5, 0.1 mg/mL BSA) in a total reaction volume of 100 μL. Liberation of AMC is monitored continuously in a 96-well plate fluorometer using an excitation wavelength of 360 nm and an emission wavelength of 460 nm. Under these conditions, approximately 0.8 μM AMC is produced in 30 min at 25 degrees C. The enzyme used in these studies was soluble (transmembrane domain and cytoplasmic extension excluded) human protein produced in a baculovirus expression system (Bac-To-Bac, Gibco BRL). […] To measure the dissociation constants for compounds, solutions of inhibitor in DMSO were added to reactions containing enzyme and substrate (final DMSO concentration is 1%). All experiments were conducted at room temperature using the standard reaction conditions described above. To determine the dissociation constants (Ki), reaction rates were fit by non-linear regression to the Michaelis-Menton equation for competitive inhibition. The errors in reproducing the dissociation constants are typically less than two-fold.

Compound | IC50 [nM]
CC(C)(O)Cn1ncc2c1CN([C@H]1CO[C@H](c3cc(F)ccc3F)[C@@H](N)C1)C2 [Example 6, 1-{5-[(3R,5S,6R)-5-amino-6-(2,5-difluorophenyl)tetrahydro-2H-pyran-3-yl]-5,6-dihydropyrrolo-[3,4-c]pyrazol-1(4H)-yl}-2-methylpropan-2-ol] | 4
N[C@H]1C[C@@H](N2Cc3n[nH]c(-c4nnn[nH]4)c3C2)CO[C@@H]1c1cc(F)ccc1F [Example 14] | 0.6
COC(=O)Cn1cc2c(n1)CN([C@H]1CO[C@H](c3cc(F)c(F)cc3F)[C@@H](N)C1)C2 [Example 10] | 12
NC(=O)Cn1ncc2c1CN([C@H]1CO[C@H](c3cc(F)c(F)cc3F)[C@@H](N)C1)C2 [Example 9] | 7.4

Second part, the compound after the results:

IC50 [nM] | Compound
9.2 | CC(C)(O)Cn1ncc2c1CN([C@H]1CO[C@H](c3cc(F)c(F)cc3F)[C@@H](N)C1)C2 [Example 12]
6.8 | NC(=O)Cn1cc2c(n1)CN([C@H]1CO[C@H](c3cc(F)ccc3F)[C@@H](N)C1)C2 [Example 1, 2-{5-[(3R,5S,6R)-5-amino-6-(2,5-difluorophenyl)tetrahydro-2H-pyran-3-yl]-5,6-dihydropyrrolo[3,4-c]pyrazol-2(4H)-yl}acetamide]
11 | N[C@H]1C[C@@H](N2Cc3cn(CCO)nc3C2)CO[C@@H]1c1cc(F)ccc1F [Example 4, 2-{5-[(3R,5S,6R)-5-amino-6-(2,5-difluorophenyl)tetrahydro-2H-pyran-3-yl]-5,6-dihydropyrrolo[3,4-c]pyrazol-2(4H)-yl}ethanol]
8.1 | COC(=O)Cn1cc2c(n1)CN([C@H]1CO[C@H](c3cc(F)ccc3F)[C@@H](N)C1)C2 [Example 2, Methyl {5-[(3R,5S,6R)-5-amino-6-(2,5-difluorophenyl)tetrahydro-2H-pyran-3-yl]-5,6-dihydropyrrolo[3,4-c]pyrazol-2(4B)-yl}acetate]
0.89 | N#Cc1[nH]nc2c1CN([C@H]1CO[C@H](c3cc(F)ccc3F)[C@@H](N)C1)C2 [Example 13]
9.4 | N[C@H]1C[C@@H](N2Cc3cn(CC(=O)O)nc3C2)CO[C@@H]1c1cc(F)ccc1F [Example 3, {5-[(3R,5S,6R)-5-amino-6-(2,5-difluorophenyl)tetrahydro-2H-pyran-3-yl]-5,6-dihydropyrrolo[3,4-c]pyrazol-2(4H)-yl}acetic acid hydrochloride salt]
8.9 | NC(=O)Cn1cc2c(n1)CN([C@H]1CO[C@H](c3cc(F)c(F)cc3F)[C@@H](N)C1)C2 [Example 8]
9.3 | CC(C)(O)Cn1cc2c(n1)CN([C@H]1CO[C@H](c3cc(F)ccc3F)[C@@H](N)C1)C2 [Example 5, 1-{5-[(3R,5S,6R)-5-amino-6-(2,5-difluorophenyl)tetrahydro-2H-pyran-3-yl]-5,6-dihydropyrrolo[3,4-c]pyrazol-2(4H)-yl}-2-methylpropan-2-ol]
7.5 | NC(=O)Cn1ncc2c1CN([C@H]1CO[C@H](c3cc(F)ccc3F)[C@@H](N)C1)C2 [Example 7]

target: DPP-4 (Homo sapiens, UniProt P27487); test: not given; details: cited from earlier work
Sequence (P27487 39-766 limits assumed, species assumed): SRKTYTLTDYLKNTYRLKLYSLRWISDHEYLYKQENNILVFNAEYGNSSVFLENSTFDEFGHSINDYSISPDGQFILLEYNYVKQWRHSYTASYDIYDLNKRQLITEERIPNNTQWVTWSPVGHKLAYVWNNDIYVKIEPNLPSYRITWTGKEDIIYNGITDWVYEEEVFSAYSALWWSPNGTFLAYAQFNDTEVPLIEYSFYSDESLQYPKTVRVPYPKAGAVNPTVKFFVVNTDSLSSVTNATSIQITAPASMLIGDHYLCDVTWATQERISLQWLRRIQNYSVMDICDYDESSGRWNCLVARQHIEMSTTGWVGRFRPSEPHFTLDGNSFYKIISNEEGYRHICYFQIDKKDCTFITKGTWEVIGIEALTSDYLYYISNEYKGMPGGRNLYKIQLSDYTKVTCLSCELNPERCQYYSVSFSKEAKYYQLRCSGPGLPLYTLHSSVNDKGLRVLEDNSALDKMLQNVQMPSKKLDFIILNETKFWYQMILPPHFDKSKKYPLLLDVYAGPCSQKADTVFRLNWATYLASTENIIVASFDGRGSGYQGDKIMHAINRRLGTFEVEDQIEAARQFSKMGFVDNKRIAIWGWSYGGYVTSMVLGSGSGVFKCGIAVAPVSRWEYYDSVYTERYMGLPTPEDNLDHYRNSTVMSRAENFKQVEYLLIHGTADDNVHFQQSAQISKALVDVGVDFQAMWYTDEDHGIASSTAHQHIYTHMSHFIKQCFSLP

Compound | degradation of GRF in plasma to GRF[3-44]
diprotin A | prevented
